Numbered stars: 1 amine (or outer) side, 2 acyl side, 3 side chain; on linkers, the order of the positions; unused ones are H or OH. Bridge positions count the residues as written; N and C are the ends. Square brackets hold non-standard residues; d marks the D form. Peptide text beside a SMILES is read from it. * marks the point of attachment. ξ: configuration not given here. pTerphenylCO(4''-OnC5H11) = CCCCCOc1ccc(-c2ccc(-c3ccc(C(=O)*)cc3)cc2)cc1; Orn(4R-OH,5R-OH) = O=C([C@H](C[C@@H](O)[C@@H](O)N[*:3])N[*:1])[*:2]; Hexadecanoyl(3R-amino) = CCCCCCCCCCCCC[C@H](CC(=O)[*:2])N[*:1]; hTyr(3S-OH,4S-OH) = N[C@H](C(=O)O)[C@H](O)[C@@H](O)c1ccc(O)cc1; X5 = CC(C)CCCOc1ccc(-c2ccc(CC[C@H](CC(=O)[*:1])N[*:2])cc2)cc1; X11 = CCCCCOc1ccc(-c2ccc(CC[C@H](CC(=O)[*:1])N[*:2])cc2)cc1; X8 = CCCCCCCCCOc1ccc2cc(CC[C@H](CC(=O)[*:1])N[*:2])ccc2c1; Orn(Nα,Nα-(2-aminoethyl)2) = NCCC[C@@H](C(=O)*)N(CCN)CCN; ξTyr(3-NO2) = NC(Cc1ccc(O)c([N+](=O)[O-])c1)C(=O)O; Pro(3S-OH,4S-Me) = C[C@H]1CN[C@H](C(=O)O)[C@H]1O; X15 = CCCCCCCCCCCCCCC[C@H](CC(=O)[*:2])N(C)[*:1]; X16 = NCC(=O)Nc1cc(CC(N[*:1])C(=O)[*:2])ccc1O; X4 = CCCCCCCCCCCCC[C@H](CC(=O)[*:1])O[*:2]; X3 = NCCCN(CCCC(N[*:1])C(=O)[*:2])[*:3]; X2 = NC(=O)CC(O)C(N[*:1])C(=O)[*:2]; X12 = CN(C)CCCC(N[*:1])C(=O)[*:2]; Hyp = O=C(O)[C@@H]1C[C@@H](O)CN1; X1 = O=C(C1C(O)CCN1[*:1])[*:2]; ξOrn(3-OH) = NCCC(O)C(N)C(=O)O; ξY = NC(Cc1ccc(O)cc1)C(=O)O; X14 = NCCCNC(CCCN)C(=O)*; X13 = CCCCCCCCCCCCCCCN*; ξHyp = O=C(O)C1CC(O)CN1; ξOrn = NCCCC(N)C(=O)O; ξT = CC(O)C(N)C(=O)O; ξV = CC(C)C(N)C(=O)O; ξP = O=C(O)C1CCCN1; ξA = CC(N)C(=O)O; Sar = CNCC(=O)O
Key:
Format in all cases: cell-based
mouse hepatocytes = experiment: In vitro hepatotoxicity test; settings: mouse hepatocyte monolayers, 1 day exposure, morphological evaluation
Excerpt: The mouse hepatocytes were isolated by a collagenase digestion and cultured in microtest plates. The hepatocyte monolayers were exposed to the test Aerothricins in the culture system for 1 day. After the culture period, the hepatocytes were observed under a microscope and evaluated morphologically. The degree of the morphological alteration (degeneration) of the hepatocytes by the test Aerothricins were compared with WF11243 and LY303366.

[1] = tested on: Aspegillus fumigatus CF1003; experiment: In vitro antifungal activity, broth micro-dilution; settings: YNB medium with 0.2% agarose, 1-2 days at 35° C.
Description: (§1) The in vitro antifungal activities of the representative Aerothricins of the present study were evaluated by determining the 50% inhibitory concentration (IC50), which was calculated as the lowest concentration of an antifungal to inhibit the growth of fungus to […] turbidity compared with the drug-free control growth spectrophotometrically.
(§2) The IC50 values were determined by the broth micro-dilution procedure based on NCCLS Approved Standard with the following minor modifications (National Committee for Clinical Laboratory Standards. (1997) Reference method for broth dilution antifungal susceptibility testing for yeasts. Approved standard. Document M27-A). Yeast Nitrogen Base (YNB; Difco Lab.) supplemented with 1% glucose and 0.25% K2HPO4 was used as testing medium for yeast, the same medium solidified with 0.2% low melting point agarose (BRL) was used for filamentous fungi. Inoculum size was 1-3×10^4 cells/ml, and incubation was performed for 1-2 days at 35° C.

Fusarium solani CF1088 = experiment: In vitro antifungal activity, broth micro-dilution; settings: YNB medium with 0.2% agarose, 1-2 days at 35° C.
Description: as §1, §2

Candida albicans CY1002 = experiment: In vitro antifungal activity, broth micro-dilution; settings: YNB medium, 1-2 days at 35° C.
Description: as §1, §2

Row | Structure (SMILES) | Cytotoxicity to hepatocyte (mouse hepatocytes) [µg/mL] | In vitro Antifungal activity, IC50, Aspegillus fumigatus CF1003 [1] [µg/mL] | In vitro Antifungal activity, IC50, Fusarium solani CF1088 (Fusarium solani CF1088) [µg/mL] | In vitro Antifungal activity, IC50, Candida albicans CY1002 (Candida albicans CY1002) [µg/mL]
1 | CC(C)CCCOc1ccc(-c2ccc(CC[C@@H]3CC(=O)NC(C(C)O)C(=O)NC(C)C(=O)NC(Cc4ccc(O)cc4)C(=O)NC(C(C)C)C(=O)N4CC(O)CC4C(=O)NC(C(C)O)C(=O)NC(C(C)O)C(=O)N4CCC(O)C4C(=O)NC(C(O)CC(N)=O)C(=O)NCC(=O)NC(C(C)O)C(=O)NC(CCCN)C(=O)N3)cc2)cc1 (some centres unmarked) [Aerothricin 45] ([ξT][ξA][ξY][ξV][ξHyp][ξT][ξT][X1][X2]G[ξT][ξOrn]; linker N-C via X5) | >100 | – | – | –
2 | CCCCCCCCCCCCC[C@@H]1CC(=O)NC(C(C)O)C(=O)NC(C)C(=O)NC(Cc2ccc(O)c(NC(=O)CN)c2)C(=O)NC(C(C)C)C(=O)N2CC(O)CC2C(=O)NC(C(C)O)C(=O)NC(C(C)O)C(=O)N2CCC(O)C2C(=O)NC(C(O)CC(N)=O)C(=O)NCC(=O)NC(C(C)O)C(=O)NC(CCCNC(=O)CN)C(=O)O1 (some centres unmarked) [Aerothricin 21] ([ξT][ξA][X16][ξV][ξHyp][ξT][ξT][X1][X2]G[ξT][ξOrn](Gly); linker N-C via X4) | >100 | – | – | –
3 | CCCCCCCCCCCCC[C@@H]1CC(=O)NC(C(C)O)C(=O)NC(C)C(=O)NC(Cc2ccc(O)cc2)C(=O)NC(C(C)C)C(=O)N2CC(O)CC2C(=O)NC(C(C)O)C(=O)NC(C(C)O)C(=O)N2CCC(O)C2C(=O)NC(C(O)CCN)C(=O)NCC(=O)NC(C(C)O)C(=O)NC(CCCN)C(=O)O1 (some centres unmarked) [Aerothricin 31] ([ξT][ξA][ξY][ξV][ξHyp][ξT][ξT][X1][ξOrn(3-OH)]G[ξT][ξOrn]; linker N-C via X4) | – | 0.49 | 0.70 | 0.07
4 | CCCCCCCCCCCCCCCNC(=O)[C@@H]1CC(=O)NC(C(C)O)C(=O)NC(C)C(=O)NC(Cc2ccc(O)c([N+](=O)[O-])c2)C(=O)NC(C(C)C)C(=O)N2CC(O)CC2C(=O)NC(C(C)O)C(=O)NC(C(C)O)C(=O)N2CCC(O)C2C(=O)NC(C(O)CC(N)=O)C(=O)NCC(=O)NC(C(C)O)C(=O)NC(CCCN)C(=O)N1 (stereo partly drawn) [Aerothricin 77] ([ξT][ξA][ξTyr(3-NO2)][ξV][ξHyp][ξT][ξT][X1][X2]G[ξT][ξOrn]D-X13; lactam N-13) | – | 0.10 | 0.67 | 0.13
5 | CCCCCOc1ccc(-c2ccc(-c3ccc(C(=O)N[C@H]4C[C@@H](O)[C@@H](O)NC(=O)[C@@H]5[C@@H](O)[C@@H](C)CN5C(=O)[C@H]([C@@H](C)O)NC(=O)[C@H]([C@H](O)[C@@H](O)c5ccc(O)cc5)NC(=O)[C@@H]5C[C@@H](O)CN5C(=O)[C@H]([C@@H](C)O)NC4=O)cc3)cc2)cc1 [LY303366, reference compound] ({pTerphenylCO(4''-OnC5H11)}-[Orn(4R-OH,5R-OH)]T[Hyp][hTyr(3S-OH,4S-OH)]T[Pro(3S-OH,4S-Me)]; lactam 1-C) | 10 | – | – | –
6 | CCCCCCCCCOc1ccc2cc(CC[C@@H]3CC(=O)NC(C(C)O)C(=O)NC(C)C(=O)NC(Cc4ccc(O)cc4)C(=O)NC(C(C)C)C(=O)N4CC(O)CC4C(=O)NC(C(C)O)C(=O)NC(C(C)O)C(=O)N4CCC(O)C4C(=O)NC(C(O)CC(N)=O)C(=O)NCC(=O)NC(C(C)O)C(=O)NC(CCCN)C(=O)N3)ccc2c1 (some centres unmarked) [Aerothricin 53] ([ξT][ξA][ξY][ξV][ξHyp][ξT][ξT][X1][X2]G[ξT][ξOrn]; linker N-C via X8) | >100 | – | – | –
7 | CCCCCCCCCCCCC[C@@H]1CC(=O)NC(C(C)O)C(=O)NC(C)C(=O)NC(Cc2ccc(O)cc2)C(=O)NC(C(C)C)C(=O)N2CC(O)CC2C(=O)NC(C(C)O)C(=O)NC(C(C)O)C(=O)N2CCC(O)C2C(=O)NC(C(O)CC(N)=O)C(=O)NCC(=O)NC(C(C)O)C(=O)NC(CCCN(CCCN)C(=O)[C@H](CCCN)N(CCN)CCN)C(=O)O1 (some centres unmarked) [Aerothricin 134] ([ξT][ξA][ξY][ξV][ξHyp][ξT][ξT][X1][X2]G[ξT][X3](Orn(Nα,Nα-(2-aminoethyl)2)); linker N-C via X4) | >100 | – | – | –
8 | CCCCCCCCCCOc1ccc(CC[C@@H]2CC(=O)NC(C(C)O)C(=O)NC(C)C(=O)NC(Cc3ccc(O)cc3)C(=O)NC(C(C)C)C(=O)N3CC(O)CC3C(=O)NC(C(C)O)C(=O)NC(C(C)O)C(=O)N3CCC(O)C3C(=O)NC(C(O)CC(N)=O)C(=O)NCC(=O)NC(C(C)O)C(=O)NC(CCCN)C(=O)N2)cc1 (single isomer, unassigned) [Aerothricin 47] | >100 | – | – | –
9 | CCCCCCCCCCCCC[C@@H]1CC(=O)NC(C(C)O)C(=O)NC(C)C(=O)NC(Cc2ccc(O)cc2)C(=O)NC(C(C)C)C(=O)N2CC(O)CC2C(=O)NC(C(C)O)C(=O)NC(C(C)O)C(=O)N2CCC(O)C2C(=O)NC(C(O)CC(N)=O)C(=O)NCC(=O)NC(C(C)O)C(=O)NC(CCCNC(=O)CNC)C(=O)O1 (some centres unmarked) [Aerothricin 14] ([ξT][ξA][ξY][ξV][ξHyp][ξT][ξT][X1][X2]G[ξT][ξOrn](Sar); linker N-C via X4) | >100 | – | – | –
10 | CCCCCCCCCCCCC[C@@H]1CC(=O)NC(C(C)O)C(=O)NC(C)C(=O)NC(Cc2ccc(O)cc2)C(=O)NC(C(C)C)C(=O)N2CC(O)CC2C(=O)NC(C(C)O)C(=O)NC(C(C)O)C(=O)N2CCC(O)C2C(=O)NC(C(O)CC(N)=O)C(=O)NCC(=O)NC(C(C)O)C(=O)NC(CCCN(CCCN)C(=O)C(CCCN)NCCCN)C(=O)O1 (some centres unmarked) [Aerothricin 136] ([ξT][ξA][ξY][ξV][ξHyp][ξT][ξT][X1][X2]G[ξT][X3](X14); linker N-C via X4) | – | 0.28 | 0.04 | 0.20
11 | CCCCCCCCCCCCC[C@@H]1CC(=O)NC(C(C)O)C(=O)NC(C)C(=O)NC(Cc2ccc(OC)cc2)C(=O)NC(C(C)C)C(=O)N2CC(O)CC2C(=O)NC(C(C)O)C(=O)NC(C(C)O)C(=O)N2CCC(O)C2C(=O)NC(C(O)CC(N)=O)C(=O)NCC(=O)NC(C(C)O)C(=O)NC(CCCN(C)C)C(=O)O1 (some centres unmarked) [Aerothricin 12] ([ξT][ξA][ξY](Me)[ξV][ξHyp][ξT][ξT][X1][X2]G[ξT][X12]; linker N-C via X4) | – | 0.10 | 2.20 | 0.09
12 | CCCCCOc1ccc(-c2ccc(CC[C@@H]3CC(=O)NC(C(C)O)C(=O)NC(C)C(=O)NC(Cc4ccc(O)c([N+](=O)[O-])c4)C(=O)NC(C(C)C)C(=O)N4CC(O)CC4C(=O)NC(C(C)O)C(=O)NC(C(C)O)C(=O)N4CCC(O)C4C(=O)NC(C(O)CC(N)=O)C(=O)NCC(=O)NC(C(C)O)C(=O)NC(CCCN)C(=O)N3)cc2)cc1 (some centres unmarked) [Aerothricin 54] ([ξT][ξA][ξTyr(3-NO2)][ξV][ξHyp][ξT][ξT][X1][X2]G[ξT][ξOrn]; linker N-C via X11) | – | 0.17 | 0.74 | 0.15
13 | CCCCCCCCCCCCC[C@@H]1CC(=O)NC(C(C)O)C(=O)NC(C)C(=O)NC(Cc2ccc(O)c([N+](=O)[O-])c2)C(=O)NC(C(C)C)C(=O)N2CC(O)CC2C(=O)NC(C(C)O)C(=O)NC(C(C)O)C(=O)N2CCC(O)C2C(=O)NC(C(O)CC(N)=O)C(=O)NCC(=O)NC(C(C)O)C(=O)NC(CCCN)C(=O)N1 (stereo partly drawn) [Aerothricin 39] (cyclo(G[ξT][ξOrn][Hexadecanoyl(3R-amino)][ξT][ξA][ξTyr(3-NO2)][ξV][ξHyp][ξT][ξT][X1][X2])) | – | 0.17 | 0.70 | 0.09
14 | CCCCCCCCCCCCC[C@@H]1CC(=O)NC(C(C)O)C(=O)NC(C)C(=O)NC(Cc2ccc(O)cc2)C(=O)NC(C(C)C)C(=O)N2CC(O)CC2C(=O)NC(C(C)O)C(=O)NC(C(C)O)C(=O)N2CCC(O)C2C(=O)NC(C(O)CC(N)=O)C(=O)NCC(=O)NC(C(C)O)C(=O)NC(CCCNC(=O)C2CCCN2)C(=O)O1 (some centres unmarked) [Aerothricin 15] ([ξT][ξA][ξY][ξV][ξHyp][ξT][ξT][X1][X2]G[ξT][ξOrn](ξP); linker N-C via X4) | >100 | – | – | –
15 | CCCCCCCCCCCCCCC[C@@H]1CC(=O)NC(C(C)O)C(=O)NC(C)C(=O)NC(Cc2ccc(O)cc2)C(=O)NC(C(C)C)C(=O)N2CC(O)CC2C(=O)NC(C(C)O)C(=O)NC(C(C)O)C(=O)N2CCC(O)C2C(=O)NC(C(O)CC(N)=O)C(=O)NCC(=O)NC(C(C)O)C(=O)NC(CCCN)C(=O)N1C (some centres unmarked) [Aerothricin 95] (cyclo(G[ξT][ξOrn][X15][ξT][ξA][ξY][ξV][ξHyp][ξT][ξT][X1][X2])) | – | 0.10 | 0.74 | 0.14
16 | CCCCCCCCCCCCCCCNC(=O)[C@@H]1CC(=O)NC(C(C)O)C(=O)NC(C)C(=O)NC(Cc2ccc(O)cc2)C(=O)NC(C(C)C)C(=O)N2CC(O)CC2C(=O)NC(C(C)O)C(=O)NC(C(C)O)C(=O)N2CCC(O)C2C(=O)NC(C(O)CC(N)=O)C(=O)NCC(=O)NC(C(C)O)C(=O)NC(CCCN(C)C)C(=O)N1 (stereo partly drawn) [Aerothricin 75] ([ξT][ξA][ξY][ξV][ξHyp][ξT][ξT][X1][X2]G[ξT][X12]D-X13; lactam N-13) | – | 0.10 | 1.40 | 0.15

Source: patent US20010038824A1, “Intranasal cyclic peptide formulations” (priority 2000, published 2001)
